Data from ChEMBL document CHEMBL1201862, “PubChem BioAssay data set” (2004).
Activity calls are given as the source filed them.

Experiments:
[1] = molecular target: T1, DNA dC->dU-editing enzyme APOBEC-3A (Homo sapiens, UniProt P31941); assay: SAR analysis of small molecule inhibitors of APOBEC3A DNA Deaminase via a fluorescence-based single-stranded DNA deaminase assay.; format: functional; details: read-out: IC50_Mean
[2] = molecular target: T1, DNA dC->dU-editing enzyme APOBEC-3A; assay: SAR analysis of small molecule inhibitors of APOBEC3A DNA Deaminase via a fluorescence-based single-stranded DNA deaminase assay - Set 2.; format: functional; details: read-out: IC50_Mean
[3] = molecular target: T2, DNA dC->dU-editing enzyme APOBEC-3G (Homo sapiens, UniProt Q9HC16); assay: Dose Response confirmation of small molecule APOBEC3G DNA Deaminase Inhibitors via a fluorescence-based single-stranded DNA deaminase assay. [Related pubchem assays (depositor defined):AID493012, AID493028]; format: functional
T2 sequence (Q9HC16 whole entry): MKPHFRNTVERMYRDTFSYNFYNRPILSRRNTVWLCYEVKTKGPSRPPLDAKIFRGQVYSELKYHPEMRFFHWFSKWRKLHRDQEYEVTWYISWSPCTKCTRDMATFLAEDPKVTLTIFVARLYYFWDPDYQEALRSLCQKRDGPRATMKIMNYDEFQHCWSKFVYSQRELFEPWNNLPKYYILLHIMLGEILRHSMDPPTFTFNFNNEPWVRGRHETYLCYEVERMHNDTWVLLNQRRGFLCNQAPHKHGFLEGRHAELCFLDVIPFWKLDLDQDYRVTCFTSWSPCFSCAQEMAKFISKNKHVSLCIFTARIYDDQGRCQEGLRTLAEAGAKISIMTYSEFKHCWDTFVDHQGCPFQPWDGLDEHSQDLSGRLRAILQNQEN

[4] = molecular target: T2, DNA dC->dU-editing enzyme APOBEC-3G; assay: SAR analysis of small molecule inhibitors of APOBEC3G DNA Deaminase via a fluorescence-based single-stranded DNA deaminase assay - Set 2.; format: functional; details: read-out: IC50_Mean
[5] = molecular target: Large T antigen (Simian virus 40, UniProt P03070); format: functional, Betapolyomavirus macacae;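 further: Confirmatory-stage PubChem screen for compounds that inhibit SV40 T antigen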
Sequence of Large T antigen (P03070 whole entry): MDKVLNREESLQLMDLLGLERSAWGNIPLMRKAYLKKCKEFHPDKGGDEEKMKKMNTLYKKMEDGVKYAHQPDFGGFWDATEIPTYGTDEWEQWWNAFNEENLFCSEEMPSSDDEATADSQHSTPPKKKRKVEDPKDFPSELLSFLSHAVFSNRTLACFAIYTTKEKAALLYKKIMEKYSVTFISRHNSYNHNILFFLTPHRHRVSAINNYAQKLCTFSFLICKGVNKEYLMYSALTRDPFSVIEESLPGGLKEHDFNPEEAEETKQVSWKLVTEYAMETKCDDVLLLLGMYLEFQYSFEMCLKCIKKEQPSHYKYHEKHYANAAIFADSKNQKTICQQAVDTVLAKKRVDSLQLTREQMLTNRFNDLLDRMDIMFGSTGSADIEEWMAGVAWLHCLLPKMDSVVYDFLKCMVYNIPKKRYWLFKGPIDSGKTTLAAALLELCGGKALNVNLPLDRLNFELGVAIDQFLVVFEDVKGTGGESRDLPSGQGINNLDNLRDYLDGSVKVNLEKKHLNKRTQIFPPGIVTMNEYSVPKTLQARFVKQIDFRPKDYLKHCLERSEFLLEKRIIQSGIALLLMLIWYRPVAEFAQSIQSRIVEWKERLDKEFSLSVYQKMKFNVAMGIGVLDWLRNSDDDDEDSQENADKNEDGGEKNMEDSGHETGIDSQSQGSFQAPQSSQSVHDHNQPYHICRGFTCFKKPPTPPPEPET

[6] = molecular target: T1, DNA dC->dU-editing enzyme APOBEC-3A; assay: APOBEC3A DNA deaminase inhibitors, dose response, biochemical (AID 504722); format: functional
[7] = molecular target: T2, DNA dC->dU-editing enzyme APOBEC-3G; assay: APOBEC3G deaminase inhibitors, SAR follow-up, biochemical, fluorescence, single-stranded DNA substrate (AID 602136); format: functional; details: read-out: IC50_Mean
[8] = tested on: J774.A1; assay: Confirmation of image-based Screening Assay for Inhibitors of Phagocytosis. [Related pubchem assays (depositor defined):AID1029, AID1643]; format: functional, cell-based; details: Mus musculus
[9] = tested on: BJ; assay: cells; format: functional, cell-based; details: Homo sapiens
[10] = cytotoxicity in HEK-293T cells, dose response, cytotoxicity control for TCR NF-kB inhibitor project, luminescence, T-cell screen hits (AID 489026); format: functional, cell-based;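 further: cells exposed to compound about 14 hours before the viability readout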
[11] = molecular target: T3, Protein RecA (Mycobacterium tuberculosis, UniProt P9WHJ3); assay: Fluorescence Cell-Free Homogeneous Dose Retest to Identify Inhibitors of RecA-Intein Splicing Activity. [Related pubchem assays (depositor defined):AID2097, AID2223, AID489010, AID492950]; format: functional
T3 sequence (P9WHJ3 whole entry): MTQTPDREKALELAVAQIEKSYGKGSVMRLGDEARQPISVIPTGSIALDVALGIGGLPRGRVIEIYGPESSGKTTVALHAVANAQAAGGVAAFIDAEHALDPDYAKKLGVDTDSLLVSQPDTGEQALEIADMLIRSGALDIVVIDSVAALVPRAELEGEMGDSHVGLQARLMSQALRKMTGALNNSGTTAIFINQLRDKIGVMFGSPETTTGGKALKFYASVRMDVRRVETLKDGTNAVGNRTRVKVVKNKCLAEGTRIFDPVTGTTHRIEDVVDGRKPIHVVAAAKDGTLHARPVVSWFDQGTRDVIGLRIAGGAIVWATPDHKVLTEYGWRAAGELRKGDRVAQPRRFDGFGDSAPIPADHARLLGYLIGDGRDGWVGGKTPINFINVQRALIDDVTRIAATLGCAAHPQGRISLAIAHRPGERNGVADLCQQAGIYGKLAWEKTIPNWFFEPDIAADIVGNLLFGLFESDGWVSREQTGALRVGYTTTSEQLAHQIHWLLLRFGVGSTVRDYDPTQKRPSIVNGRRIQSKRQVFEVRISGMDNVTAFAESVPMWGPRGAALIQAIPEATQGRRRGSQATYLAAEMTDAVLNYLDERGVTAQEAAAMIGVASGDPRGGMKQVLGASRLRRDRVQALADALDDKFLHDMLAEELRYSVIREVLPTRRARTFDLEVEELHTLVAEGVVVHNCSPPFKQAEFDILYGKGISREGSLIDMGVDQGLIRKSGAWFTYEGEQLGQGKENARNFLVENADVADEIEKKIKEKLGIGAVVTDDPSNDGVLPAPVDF

[12] = cytotoxicity toward DRD oncogenic fibroblasts, dose response, cell-based, non-viral oncogenic, luminescence (AID 1934); format: functional; details: Homo sapiens
[13] = inhibitors of firefly luciferase expression or activity, dose response, H4 neuroglioma cells, luminescence (AID 1990); format: functional, cell-based
[14] = molecular target: E3 ubiquitin-protein ligase Mdm2/Protein Mdm4 (Homo sapiens, UniProt O15151+Q00987); assay: Mdm2-MdmX interaction inhibitors, dose response, luminescence detection (AID 504593); format: functional
Sequence of E3 ubiquitin-protein ligase Mdm2/Protein Mdm4 (Q00987 whole entry): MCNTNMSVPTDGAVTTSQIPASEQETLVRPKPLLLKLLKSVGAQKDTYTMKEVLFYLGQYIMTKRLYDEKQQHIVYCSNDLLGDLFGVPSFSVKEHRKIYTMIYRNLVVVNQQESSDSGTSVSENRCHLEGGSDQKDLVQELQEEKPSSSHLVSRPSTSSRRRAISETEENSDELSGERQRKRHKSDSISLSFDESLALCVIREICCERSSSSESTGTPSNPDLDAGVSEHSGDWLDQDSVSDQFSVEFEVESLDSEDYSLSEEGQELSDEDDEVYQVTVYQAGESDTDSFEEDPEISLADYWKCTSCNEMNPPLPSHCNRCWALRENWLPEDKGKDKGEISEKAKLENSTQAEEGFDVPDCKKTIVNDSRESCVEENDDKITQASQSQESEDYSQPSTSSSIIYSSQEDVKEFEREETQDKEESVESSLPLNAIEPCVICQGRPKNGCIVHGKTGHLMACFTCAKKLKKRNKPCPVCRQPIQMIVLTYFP
Sequence of E3 ubiquitin-protein ligase Mdm2/Protein Mdm4 (O15151 whole entry): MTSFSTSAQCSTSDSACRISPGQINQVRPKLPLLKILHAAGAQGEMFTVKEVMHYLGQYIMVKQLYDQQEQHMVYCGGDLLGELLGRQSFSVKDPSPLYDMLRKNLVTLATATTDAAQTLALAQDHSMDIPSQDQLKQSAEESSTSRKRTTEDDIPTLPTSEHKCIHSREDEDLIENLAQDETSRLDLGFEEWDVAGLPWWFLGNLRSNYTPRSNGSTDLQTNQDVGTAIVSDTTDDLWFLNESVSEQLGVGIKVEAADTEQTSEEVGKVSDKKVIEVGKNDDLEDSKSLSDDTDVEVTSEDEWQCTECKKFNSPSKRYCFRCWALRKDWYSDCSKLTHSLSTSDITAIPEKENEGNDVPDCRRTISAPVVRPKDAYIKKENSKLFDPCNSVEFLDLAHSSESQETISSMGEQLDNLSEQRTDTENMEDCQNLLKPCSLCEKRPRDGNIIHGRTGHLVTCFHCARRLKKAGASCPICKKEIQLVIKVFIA

[15] = inhibitors of SNCA 5'UTR-driven reporter translation, confirmation, H4 neuroglioma cells, luminescence (AID 1988); format: functional, cell-based
[16] = tested on: BJ; assay: cytotoxicity toward BJ-TERT fibroblasts, dose response, cell-based, RAS-independent, luminescence (AID 1933); format: functional; details: Homo sapiens
[17] = tested on: BJ; assay: cytotoxicity toward Ras-transformed BJeLR fibroblasts, dose response, cell-based, alamar blue fluorescence, cherrypicked samples (AID 2631); format: functional; details: Homo sapiens;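 further: confirmatory dose-response assay in RAS-dependent BJ fibroblasts engineered with TERT, LT and ST, with cytotoxicity read by fluorescence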
[18] = molecular target: T4, Replicative DNA helicase DnaB (Mycobacterium tuberculosis, UniProt P9WMR3); assay: DnaB intein splicing inhibitors, dose response, biochemical, cell-free fluorescence (AID 449749); format: functional
T4 sequence (P9WMR3 whole entry): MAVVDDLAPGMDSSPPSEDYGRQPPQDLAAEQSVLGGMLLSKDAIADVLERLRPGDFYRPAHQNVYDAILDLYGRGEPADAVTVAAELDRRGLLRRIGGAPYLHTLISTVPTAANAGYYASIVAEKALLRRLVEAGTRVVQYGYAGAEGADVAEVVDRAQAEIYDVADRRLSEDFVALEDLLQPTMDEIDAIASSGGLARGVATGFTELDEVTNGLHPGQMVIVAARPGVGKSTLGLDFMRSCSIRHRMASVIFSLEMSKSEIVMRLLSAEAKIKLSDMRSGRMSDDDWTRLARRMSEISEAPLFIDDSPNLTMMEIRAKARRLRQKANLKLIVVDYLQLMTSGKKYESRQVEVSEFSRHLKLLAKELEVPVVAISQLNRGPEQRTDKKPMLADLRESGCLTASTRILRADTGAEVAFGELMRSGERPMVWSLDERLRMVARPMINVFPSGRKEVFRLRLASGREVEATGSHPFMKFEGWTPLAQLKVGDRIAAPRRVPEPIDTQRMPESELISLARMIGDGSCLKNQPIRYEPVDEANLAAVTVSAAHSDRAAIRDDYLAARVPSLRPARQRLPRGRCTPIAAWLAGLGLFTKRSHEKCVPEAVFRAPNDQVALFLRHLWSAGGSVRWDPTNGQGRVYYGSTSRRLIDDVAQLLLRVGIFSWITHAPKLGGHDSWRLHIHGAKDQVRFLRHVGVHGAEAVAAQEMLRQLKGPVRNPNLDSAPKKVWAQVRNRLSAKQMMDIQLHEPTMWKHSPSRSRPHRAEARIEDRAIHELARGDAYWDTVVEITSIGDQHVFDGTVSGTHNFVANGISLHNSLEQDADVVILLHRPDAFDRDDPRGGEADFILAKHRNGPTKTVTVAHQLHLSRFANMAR

[19] = Luminescence Cell-Based Dose Response HTS to Identify Inhibitors of 5'UTR Stem-Loop Driven Prion Protein mRNA Translation in H4 Neuroglioblastoma Cells. [Related pubchem assays: 1827 (Project Summary), 1813 (Primary HTS)]; format: functional
[20] = tested on: BJ; assay: cytotoxicity toward BJ-TERT-LT-ST fibroblasts, dose response, cell-based, RAS-independent, luminescence (AID 1935); format: functional; details: Homo sapiens;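 further: BJ fibroblasts immortalized with TERT plus LT and ST oncogenes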
[21] = molecular target: Eukaryotic translation initiation factor 4H (Homo sapiens, UniProt Q15056); assay: eIF4H inhibition in translation initiation, SAR follow-up (AID 435011); format: functional
[22] = molecular target: Polyadenylate-binding protein 1 (Homo sapiens, UniProt P11940); assay: PABP inhibition in translation initiation, SAR follow-up (AID 435018); format: functional
Sequence of Polyadenylate-binding protein 1 (P11940 whole entry): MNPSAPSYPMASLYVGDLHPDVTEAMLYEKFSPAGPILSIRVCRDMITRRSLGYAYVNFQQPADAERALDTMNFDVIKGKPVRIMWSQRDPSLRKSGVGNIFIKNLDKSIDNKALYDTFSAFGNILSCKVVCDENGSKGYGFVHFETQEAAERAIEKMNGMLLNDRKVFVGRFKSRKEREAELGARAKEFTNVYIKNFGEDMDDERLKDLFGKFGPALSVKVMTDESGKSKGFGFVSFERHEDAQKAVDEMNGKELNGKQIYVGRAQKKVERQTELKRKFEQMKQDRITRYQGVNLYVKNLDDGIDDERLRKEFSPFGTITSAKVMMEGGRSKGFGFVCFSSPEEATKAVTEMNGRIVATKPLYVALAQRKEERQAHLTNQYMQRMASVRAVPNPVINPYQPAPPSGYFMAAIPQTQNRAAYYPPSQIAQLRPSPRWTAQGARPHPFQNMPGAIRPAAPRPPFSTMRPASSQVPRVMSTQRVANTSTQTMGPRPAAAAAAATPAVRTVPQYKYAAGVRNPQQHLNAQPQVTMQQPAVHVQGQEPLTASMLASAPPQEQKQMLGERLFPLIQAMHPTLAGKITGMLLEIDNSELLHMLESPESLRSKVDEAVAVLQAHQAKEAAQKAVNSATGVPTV

[23] = NIH-3T3 fibroblast cytotoxicity, dose response, cytotoxicity control, cell-based, fluorescence, Alamar Blue, secondary assay (AID 2327); format: functional;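 further: NIH-3T3 mouse fibroblasts cultured with fluconazole at 8 µg/mL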
[24] = molecular target: Nonstructural protein 1 (Influenza A virus, UniProt Q194T2); format: functional, Influenza A virus (A/California/07/2009(H1N1))
Sequence of Nonstructural protein 1 (Q194T2 whole entry): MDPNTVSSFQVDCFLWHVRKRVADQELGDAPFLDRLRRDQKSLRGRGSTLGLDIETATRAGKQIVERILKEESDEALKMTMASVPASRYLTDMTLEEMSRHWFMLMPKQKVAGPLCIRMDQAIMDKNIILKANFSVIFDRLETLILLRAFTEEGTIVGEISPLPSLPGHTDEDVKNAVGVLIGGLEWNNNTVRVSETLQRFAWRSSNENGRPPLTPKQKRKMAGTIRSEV

[25] = molecular target: Beta-galactosidase (Escherichia coli, UniProt Q8VNN2); assay: beta-galactosidase enzyme inhibitors and activators, dose response, artefact control for CCR6 antagonist project, biochemical, E. coli enzyme, set 3 (AID 504712); format: functional
Sequence of Beta-galactosidase (Q8VNN2 whole entry): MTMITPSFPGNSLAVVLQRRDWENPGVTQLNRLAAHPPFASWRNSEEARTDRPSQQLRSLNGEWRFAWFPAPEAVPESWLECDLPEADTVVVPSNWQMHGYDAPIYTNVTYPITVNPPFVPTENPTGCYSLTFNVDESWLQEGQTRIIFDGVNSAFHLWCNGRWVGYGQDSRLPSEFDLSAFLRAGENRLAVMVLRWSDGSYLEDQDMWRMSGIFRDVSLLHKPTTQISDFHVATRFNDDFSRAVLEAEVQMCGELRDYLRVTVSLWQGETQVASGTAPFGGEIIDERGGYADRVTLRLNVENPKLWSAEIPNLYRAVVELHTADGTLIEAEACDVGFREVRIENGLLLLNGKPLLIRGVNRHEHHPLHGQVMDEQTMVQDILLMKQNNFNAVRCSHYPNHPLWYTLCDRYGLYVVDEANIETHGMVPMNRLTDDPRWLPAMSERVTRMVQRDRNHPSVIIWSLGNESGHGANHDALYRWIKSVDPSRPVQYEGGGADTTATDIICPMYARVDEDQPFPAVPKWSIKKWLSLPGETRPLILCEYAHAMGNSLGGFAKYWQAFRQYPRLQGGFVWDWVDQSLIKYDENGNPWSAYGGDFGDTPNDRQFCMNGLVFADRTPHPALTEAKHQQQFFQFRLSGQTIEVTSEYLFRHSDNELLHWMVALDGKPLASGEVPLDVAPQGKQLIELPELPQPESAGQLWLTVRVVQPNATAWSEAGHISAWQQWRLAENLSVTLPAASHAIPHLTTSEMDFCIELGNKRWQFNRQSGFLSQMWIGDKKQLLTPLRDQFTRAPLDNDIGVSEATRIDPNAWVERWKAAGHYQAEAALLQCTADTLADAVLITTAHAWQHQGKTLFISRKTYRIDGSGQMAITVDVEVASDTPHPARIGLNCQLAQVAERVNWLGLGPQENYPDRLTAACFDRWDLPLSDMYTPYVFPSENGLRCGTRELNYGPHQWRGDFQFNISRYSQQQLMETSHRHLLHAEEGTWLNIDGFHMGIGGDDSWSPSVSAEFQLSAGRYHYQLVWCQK

[26] = molecular target: T5, Mannose-6-phosphate isomerase (Homo sapiens, UniProt P34949); assay: inhibitors of human PMI, primary screen, biochemical, fluorescence intensity, coupled assay (AID 1209)
T5 sequence (P34949 whole entry): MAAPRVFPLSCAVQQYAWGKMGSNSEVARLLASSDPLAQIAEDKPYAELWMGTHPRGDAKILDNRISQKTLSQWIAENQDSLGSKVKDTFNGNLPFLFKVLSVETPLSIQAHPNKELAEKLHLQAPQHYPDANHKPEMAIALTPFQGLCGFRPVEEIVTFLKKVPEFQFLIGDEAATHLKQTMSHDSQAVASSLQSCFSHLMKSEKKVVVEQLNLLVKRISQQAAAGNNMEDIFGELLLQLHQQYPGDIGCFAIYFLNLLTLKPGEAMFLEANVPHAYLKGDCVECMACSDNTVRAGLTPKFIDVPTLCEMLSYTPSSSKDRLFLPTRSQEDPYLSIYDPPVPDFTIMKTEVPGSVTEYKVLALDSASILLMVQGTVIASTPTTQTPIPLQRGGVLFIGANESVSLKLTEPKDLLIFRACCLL

[27] = C. albicans growth with fluconazole, confirmation, fluorescence, retest (AID 2467); format: functional, cell-based
[28] = molecular target: T5, Mannose-6-phosphate isomerase; assay: human PMI inhibitors, high substrate, primary screen, biochemical, fluorescence intensity, high mannose 6-phosphate (AID 1220)

T1 sequence (P31941 whole entry): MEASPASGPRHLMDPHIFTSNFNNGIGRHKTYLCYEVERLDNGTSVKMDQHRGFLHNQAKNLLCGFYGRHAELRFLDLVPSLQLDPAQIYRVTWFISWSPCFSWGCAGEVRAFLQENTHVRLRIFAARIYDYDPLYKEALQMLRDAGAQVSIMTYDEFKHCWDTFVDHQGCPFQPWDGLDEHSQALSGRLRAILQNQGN

## CCCCn1c(=O)c2ccccc2n2c(S)nnc12
[1]
  IC50: > 99 µM (inactive)
[2]
  IC50: > 99 µM (inactive)
[3]
  IC50: 1.7 µM (active)
[4]
  IC50: 0.345 µM (active)
[5]
  IC50: 11.5 µM (active)
[6]
  IC50: > 100 µM (inactive)
[7]
  IC50: 2.72 µM (active)

## Cn1nc([N+](=O)[O-])nc1Sc1nnc(-c2ccccc2)o1
[8]
  IC50: 0.438 µM (active)
[9]
  EC50: 2.52 µM (active)
[10]
  IC50: > 80 µM (inactive)
[11]
  EC50: 10.9 µM (active)
[12]
  EC50: 11.1 µM (active)
[13]
  EC50: > 120 µM (not active)
[14]
  IC50: 6.19 µM (active)
[15]
  EC50: 10.2 µM (active)
[16]
  EC50: 3.15 µM (active)
[17]
  EC50: 0.556 µM (active)
[18]
  AC50: 40.3 µM (active)
[19]
  EC50: > 120 µM (not active)
[20]
  EC50: 43.9 µM (inconclusive)

## O=C(CSc1ccc(-c2ccco2)nn1)Nc1ccccc1
[21]
  IC50: 84.4 µM (active)
[22]
  IC50: > 100 µM (inactive)

## Cc1n[nH]c(=S)n(NC(=O)CC(=O)Nn2c(=S)[nH]nc(C)c2=O)c1=O
[23]
  EC50: > 150 µM (inactive)
[24]
  IC50: 6.42 µM (active)
[25]
  IC50: > 66.6 µM (inactive)
[26]
  IC50: > 50 µM (not active)
[27]
  EC50: 4.66 µM (active)
[28]
  IC50: > 50 µM (not active)
